Source: patent publication US20240050436A1, “COMPOSITIONS AND METHODS USED FOR RETINAL ISCHEMIA OR DIABETES” (The United States GOVERNMENT As Represented By The …, priority 2021, published 2024)
“Also recorded” adds a separate entry of the source.

Columns and labels:
p75NTR = conditions: cultures of p75NTR−/− neurons; cited from earlier work
[1] = normal young and elderly individuals; cited from earlier work
HREs [2] = test: Cell migration assay (wounded HREs, CM of treated MSCs); type: cell-based, human; conditions: 12 h of treatment with CM of modulated MSCs
Description: HREs were grown to confluence and then were wound with a single sterile cell scraper of constant diameter. Cells were divided into three groups, treated with regular media without FBS, and 1:1 mixture of FBS-free regular media and CM of vehicle- or treated-MSCs. Images of wounded areas were taken immediately after adding the treatment using a phase contrast microscope, and baseline were marked under the cell culture dish with blue marker. After 12 h, images of same field were taken and % cell migration was calculated. Each condition was verified in triplicate and was repeated using independent cultures.

p75^NTR [3] = molecular target: T1, p75^NTR (Mus musculus, UniProt Q9Z0W1); test: Interventional treatment of STZ-diabetic mice (16-weeks diabetes): kidney and systemic readouts; type: in vivo; conditions: 50 mg/Kg, po, QOD, 12 weeks
T1 construct: Interventional treatment with the p75^NTR modulator LM11A-31 (50 mg/Kg, po, QOD) for 12 weeks; from tissue; host or cells: living STZ-diabetic mice (kidney, urine, blood, body weight)
T1 sequence (Q9Z0W1 32-427): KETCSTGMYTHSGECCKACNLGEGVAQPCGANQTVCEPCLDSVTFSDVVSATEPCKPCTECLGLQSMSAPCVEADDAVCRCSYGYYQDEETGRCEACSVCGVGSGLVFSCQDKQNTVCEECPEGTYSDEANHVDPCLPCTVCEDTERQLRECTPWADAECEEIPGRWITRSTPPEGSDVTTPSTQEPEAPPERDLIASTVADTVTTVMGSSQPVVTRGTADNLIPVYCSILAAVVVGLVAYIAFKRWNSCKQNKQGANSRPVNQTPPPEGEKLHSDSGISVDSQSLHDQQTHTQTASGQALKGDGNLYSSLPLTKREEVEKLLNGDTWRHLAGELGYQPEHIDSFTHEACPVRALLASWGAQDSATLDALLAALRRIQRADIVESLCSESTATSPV

[4] = cited from earlier work
p75^NTR [5] = molecular target: T1, p75^NTR; test: Visual acuity test (cue version of Morris water maze) post retinal I/R; type: in vivo; conditions: WT mice
Description: For surgeries, mice were anesthetized with intraperitoneal ketamine (50 mg/kg; Hospira, Inc., Lake Forest, IL, USA) and xylazine (10 mg/kg; Akorn, Decatur, IL, USA). Retinal ischemia/reperfusion (I/R) was performed as described previously in Coucha, M. et al. Modulating Expression of Thioredoxin Interacting Protein (TXNIP) Prevents Secondary Damage and Preserves Visual Function in a Mouse Model of Ischemia/Reperfusion. Int. J. Mol. Sci. 2019, 20. Briefly, pupils were dilated with 1% Atropine Sulfate (Akorn, Inc., Lake Forest, IL, USA). The anterior chamber was cannulated with a 32 gauge needle attached to a line from a saline reservoir at a height calibrated to yield 120 mmHg. The intraocular pressure (IOP) was elevated to 120 mmHg for 45-60 min. I/R injury and choroidal nonperfusion was evident by whitening of the anterior segment of the globe and blanching of the episcleral veins. During infusion, topical anesthesia (0.5% tetracaine HCL, Bausch & Lomb, NJ, USA) was applied to the cornea. After ischemia, the needle was immediately withdrawn, allowing for rapid reperfusion, IOP was normalized, and reflow of the retinal vasculature was confirmed by observation of the episcleral veins. […]
Visual acuity was assessed behaviorally by training and testing mice on the “cue” version of the Morris water maze task. […]

[6] = cited from earlier work; remark: listed apart in the source
HREs [7] = test: RT-PCR gene expression in HREs treated with CM of p75NTR-modulated MSCs; type: cell-based, human
Description: (§1) GFP-labeled mouse MSCs were obtained as a kind gift from Dr. William D. Hill (MUSC, Charleston, SC) and used between passages 5-9. MSCs cells were cultured in high glucose DMEM (4.5 g/L D-glucose, Thermo-Fisher Grand Island, NY, USA) supplemented with 10% FBS and 1% penicillin/streptomycin at 37° C. and 5% CO2. Knocking down p75NTR expression was performed according to manufacturer's instructions (Santa Cruz Biotechnology Inc., Dallas, TX, USA). Briefly, MSCs were shifted to antibiotic-free medium over night when 60-80% confluent. Cells were transfected with Si-RNA against p75NTR receptor (sc-37268) or scrambled (sc-37007) with the aid of lipofectamine transfection reagent (sc-29528) for 6 h. DMEM medium containing 2× of FBS and antibiotic was added on top of pure transfection medium for an extra 12 h. Next, transfection medium was removed and cells were allowed to recover in 1×DMEM medium for 6 h. For in vivo studies, cells were collected in sterile PBS (50,000 cells/μL) for intravitreal injection 48 h after I/R. For additional set of experiments, MSCs were treated with the p75NTR modulator (LM11A-31, 200 nM). Confluent MSCs (80% confluent) were treated with LM11A-31 or its vehicle for 12 h. Then, condition media were collected as well as cell lysates using mirVANA™ PARIS™ Kit (Ambion Inc., Austin, TX, USA), according to manufacturer's instructions.
All human retinal endothelial (HRE) cell studies were in accordance with Association for Research in Vision and Ophthalmology and Charlie Norwood Veterans Affairs Medical Center, research and ethics committee. HREs and supplies were purchased from Cell Systems Corporation (Kirkland, WA, USA) and VEC Technology Inc. (Rensselaer, NY, USA).
Retinas samples and MSCs lysates were processed using (mirVANA™ PARIS™ Kit, Ambion Inc., Austin, TX, USA) and RNA was purified and quantified as described by the manufacturer's instructions. A one-step quantitative RT-PCR kit (Invitrogen, Carlsbad, CA, USA) was used to amplify 10 ng retinal mRNA. Quantitative PCR was conducted using a StepOnePlus qPCR system (Applied BioSystems, Life Technologies, Waltham, MA, USA). For HREs, RNA isolation was performed using the TRIzol Reagent (Invitrogen, Waltham, MA, USA), according to the manufacturer's instructions. RNA concentration was quantified by spectrophotometry at 260 nm using Nanodrop 2000 (Thermo Fisher Scientific, Waltham, MA, USA). A total of 1 μg of RNA was reverse transcribed to prepare cDNA using the RNA to cDNA EcoDry premix (Takara Bio USA Inc., Mountain View, CA, USA). Real-time PCR was performed using the CFX96 PCR instrument with matched primers (See Table 1) and Universal SYBR Green Supermix (Bio-Rad, Hercules, CA, USA). The following PCR parameters were used: initial denaturation cycle at 95° C. for 3 min, followed by 40 amplification cycles at 95° C. for 10 s, 56° C. for 15 s, and 72° C. for 1 min. The results are presented as the fold change in relative gene expression quantified using the delta-delta CT method and normalized to internal controls (18 S, GAPDH) and expressed relative to controls.

p75^NTR on MSCs = molecular target: T2, p75^NTR on MSCs (Mus musculus, UniProt Q9Z0W1); test: MSCs secretome: Western blotting of MSCs conditioned medium (CM); type: cell-based; conditions: Western blot of CM vs control CM; LM11A-31: 200 nM, 12 h; or p75NTR siRNA silencing
T2 construct: endogenous in cells; host or cells: GFP-labeled mouse mesenchymal stem cells (passages 5-9)
T2 sequence (Q9Z0W1 32-427): T1 sequence (Q9Z0W1 32-427)
Description: as §1

HREs [8] = test: Tube formation assay (Matrigel); type: cell-based, human; conditions: 24 h of treatment with CM of modulated MSCs
Description: Corning Matrigel Matrix (10 mg protein/mL) Growth Factor Reduced (Corning Inc., Cat. No. 354230, Corning, NY, USA) was used for tube formation assay. Then, 289 μL of cold (4° C.) Matrigel per well was added into chilled 24-well flat-bottom tissue culture plate (USA Scientific Inc., Ocala, FL, USA) and polymerized for 1 h at 37° C., 5% CO2 incubator. HREs were trypsinized and separated into different groups. Each group of cells was centrifuged and cell pellets were resuspended in regular media without FBS, same media with 1:1 mixture of FBS free regular media and CM of vehicle- or treated-MSCs. Then 300 μL of the cell suspension was added onto each well of Matrigel coated 24-well culture plate and incubated at 37° C. After 24-h, cells forming tube structures were analyzed by microscopy. Cells in five replicate fields of triplicate wells were digitally photographed with an EVOS microscope (Thermo Fisher Scientific Inc., Waltham, MA, USA). The images for Tube formation assay were analyzed using Angiogenesis analyzer for imageJ. An area of 1.8 mm2 from each well was analyzed with imageJ ver. 1.53c, and 3 wells were analyzed per group. […] The total tubular length was calculated as the average of the total tubule length from three wells, five random fields per well.

[9] = HREs treated with CM of modulated MSCs vs controls
[10] = HREs treated with CM of modulated MSCs, fold change, delta-delta CT, relative to controls

UAER normalized to creatinine (p75^NTR [3]; control animals): did not alter baseline | blood glucose level (p75^NTR [3]; control or diabetic animals): did not alter | renal fibrotic markers (Fibronectin, alpha-SMA) (p75^NTR [3]; controls): did not alter base-line | glomeruli size (Trichome staining) (p75^NTR [3]; diabetic animals): preserved glomeruli size | kidney NGF levels, Western Blot (p75^NTR [3]; diabetic animals): restored | renal and urinary inflammation (kidney IL-6 and IL-1β mRNA, urine IL-1β by ELISA) (p75^NTR [3]; diabetic animals): significantly prevented the increase | renal fibrosis (Trichome staining) (p75^NTR [3]; diabetic animals): significantly improved fibrosis | p75^NTR expression in kidney sections (immunohistochemistry) (p75^NTR [3]; diabetic or control animals): did not alter | area under the curve (AUC) of time to platform after 15 days (p75^NTR [5]; I/R, 50 mg/kg/day oral gavage every other day): normalized | NGF in MSCs conditioned medium, increase (p75^NTR on MSCs): ~4 Fold | SDF-1α in MSCs conditioned medium, increase (p75^NTR on MSCs): ~14.9 Fold | VEGF-A in MSCs conditioned medium, increase (p75^NTR on MSCs): 1.6 Fold
Structure (SMILES): CCC(C)C(N)C(=O)NCCN1CCOCC1 (stereo not shown) [LM11A-31, 2-amino-3-methyl-pentanoic acid [2-morpholin-4-yl-ethyl]-amide]
specificity to p75NTR: protective activity (p75NTR): complete loss of its protective activity | phase I safety trial outcome [1]: successfully completed | HREs migration, increase (HREs [2]): 1.34 Fold | Urinary albumin excretion rate (UAER) normalized to creatinine (p75^NTR [3]; diabetic animals): significantly improved; also recorded: increase | body weight (p75^NTR [3]; diabetic animals): preserved the weight | glomeruli areas (PAS staining) (p75^NTR [3]; diabetic animals): significantly preserved glomeruli areas back to normal glomeruli size | kidney TNF-α expression (inflammatory marker), Western Blot (p75^NTR [3]; diabetic animals): significantly prevented the increase; also recorded: significantly improved | kidney p-JNK (apoptotic marker), Western Blot (p75^NTR [3]; diabetic animals): significantly prevented the increase; also recorded: significantly improved | ratio of kidney weight to body weight (p75^NTR [3]; diabetic animals): significantly improved | renal TGF-beta expression (p75^NTR [3]; diabetic animals): significantly prevented the increase; also recorded: significantly improved | renal fibrotic markers (Fibronectin, alpha-SMA), Western Blot (p75^NTR [3]; diabetic animals): significantly prevented the increase; also recorded: significantly improved | ratio of kidney weight to body weight (p75^NTR [3]; treated controls): did not alter the baseline | water solubility [4]: water-soluble | time to reach the platform (visual-clue water maze) (p75^NTR [5]; I/R both eyes, 50 mg/kg/day oral gavage every other day from 48 h post I/R, 6, 9, 12, 15 days post I/R, 50 mg/kg/day): significantly ameliorated; also recorded: attenuated | blood-brain barrier crossing ([6]; 50 mg/kg, oral administration): cross the blood-brain barrier | oral bioavailability ([6]; in vivo, po): orally bioavailable | Akt gene expression in HREs, increase (HREs [7]; [9]): ~2.7 Fold | Bax gene expression in HREs, increase (HREs [7]; [9]): ~1.9 Fold | Bcl-2 gene expression in HREs, increase (HREs [7]; [9]): ~2.5 Fold | VEGF-A gene expression in HREs, increase (HREs [7]; [9]): ~3.5 Fold | p53 gene expression in HREs, change (HREs [7]; [9]): no change | p53 relative gene expression in HREs (mean±SEM) (HREs [7]; HREs treated with CM of modulated MSCs, first value of the printed pair): 3.7±3.4 | Akt relative gene expression in HREs (mean±SEM) (HREs [7]; [10]): 2.68±0.53 | Bax relative gene expression in HREs (mean±SEM) (HREs [7]; [10]): 1.88±0.105 | Bcl-2 relative gene expression in HREs (mean±SEM) (HREs [7]; [10]): 2.45±0.24 | VEGF-A relative gene expression in HREs (mean±SEM) (HREs [7]; [10]): 3.58±0.58 | number of junction points, increase (HREs [8]): 1.5 Fold | tube length, increase (HREs [8]): 1.4 Fold
